The conditions of series [1]: Crystal; DTA.
Series [2] can be described thus: Molar enthalpy of transition or fusion. As to conditions: Crystal; DSC.

± gives the expanded uncertainty stated by the source.

As to `COc1ccc2c(c1)c(CC(=O)O)c(C)n2C(=O)c1ccc(Cl)cc1`, the Normal melting temperature in series [1] worked out at 160.0 ± 1.1 °C. The “Molar enthalpy of transition or fusion” value in series [2] was 37.9 ± 2.4 kJ/mol.
For `NC(=O)c1cccnc1` [3-pyridinecarboxamide], the Normal melting temperature in series [1] stood at 128.6 ± 1.1 °C. The “Molar enthalpy of transition or fusion” value in series [2] came to 22.6 ± 1.4 kJ/mol.

For the origin of these results see the NIST ThermoML archive (doi:10.1016/j.jct.2015.01.015).
